Here are results for 17 molecules from ChEMBL document CHEMBL1146691, “Conformationally-flexible benzamide analogues as dopamine D3 and sigma 2 receptor ligands” (Bioorg Med Chem Lett, 2004).

One assay addresses D(3) dopamine receptor (Rattus norvegicus, UniProt P19020). Put plainly: biochemical.
In a further assay the target is D(2) dopamine receptor (Rattus norvegicus, UniProt P61169). Put plainly: biochemical.
A further assay addresses T1, D(4) dopamine receptor (Homo sapiens, UniProt P21917).
T1 sequence (P21917 whole entry): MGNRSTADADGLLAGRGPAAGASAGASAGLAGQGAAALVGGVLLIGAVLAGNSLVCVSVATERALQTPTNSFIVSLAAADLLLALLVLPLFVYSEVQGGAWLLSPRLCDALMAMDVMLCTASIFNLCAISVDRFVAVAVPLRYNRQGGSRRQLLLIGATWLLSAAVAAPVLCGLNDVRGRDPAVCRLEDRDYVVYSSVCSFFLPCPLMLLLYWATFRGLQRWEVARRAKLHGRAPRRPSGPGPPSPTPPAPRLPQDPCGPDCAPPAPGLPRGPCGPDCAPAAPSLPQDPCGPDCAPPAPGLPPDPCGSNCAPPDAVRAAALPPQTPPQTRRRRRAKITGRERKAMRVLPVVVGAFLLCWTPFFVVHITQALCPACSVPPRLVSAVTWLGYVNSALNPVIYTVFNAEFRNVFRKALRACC

pKi: −log10 of the molar value. Bounds are passed on as bounds.

Chain of D(3) dopamine receptor (P19020 whole entry): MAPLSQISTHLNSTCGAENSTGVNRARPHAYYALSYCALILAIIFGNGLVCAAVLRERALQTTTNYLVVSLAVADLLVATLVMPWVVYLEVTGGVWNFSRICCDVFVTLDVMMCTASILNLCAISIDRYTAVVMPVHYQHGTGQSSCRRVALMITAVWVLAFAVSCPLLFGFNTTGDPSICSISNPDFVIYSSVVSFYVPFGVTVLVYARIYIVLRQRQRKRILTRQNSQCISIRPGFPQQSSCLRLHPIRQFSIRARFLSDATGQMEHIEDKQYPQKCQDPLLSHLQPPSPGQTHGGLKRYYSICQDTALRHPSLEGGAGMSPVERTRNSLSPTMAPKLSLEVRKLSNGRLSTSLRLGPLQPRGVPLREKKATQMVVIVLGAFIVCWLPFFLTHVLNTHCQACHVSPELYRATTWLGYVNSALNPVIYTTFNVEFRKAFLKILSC
Chain of D(2) dopamine receptor (P61169 whole entry): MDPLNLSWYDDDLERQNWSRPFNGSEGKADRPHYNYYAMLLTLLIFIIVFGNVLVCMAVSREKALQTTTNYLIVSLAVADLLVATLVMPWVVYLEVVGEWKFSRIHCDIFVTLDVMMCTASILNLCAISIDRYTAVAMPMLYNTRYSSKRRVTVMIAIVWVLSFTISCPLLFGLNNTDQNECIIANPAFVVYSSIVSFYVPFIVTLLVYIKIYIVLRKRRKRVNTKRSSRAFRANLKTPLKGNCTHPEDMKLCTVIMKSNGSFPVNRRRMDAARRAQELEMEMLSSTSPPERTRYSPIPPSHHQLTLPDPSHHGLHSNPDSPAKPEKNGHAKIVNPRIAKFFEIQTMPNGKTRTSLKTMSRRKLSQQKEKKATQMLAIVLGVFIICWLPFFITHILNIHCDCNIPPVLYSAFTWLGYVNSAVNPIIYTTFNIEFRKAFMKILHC

For orientation: pKi means the negative decadic logarithm of the Ki, by convention in mol/L. Higher therefore signals a small Ki. Consider `COc1c(C(=O)NCCN2CCN(c3cccc(Cl)c3Cl)CC2)cc(Br)c2ccccc12`, for which the results for the pKi on D(3) dopamine receptor and at D(2) dopamine receptor were 8.10 and less than 5.00, respectively.
Regarding `COc1cc2c(cc1OC)CN(CCCCNC(=O)c1cc(Br)cc(OC)c1OC)CC2`, the pKi on Sigma 2 receptor was 8.09.
With `O=C(NCCCCN1CCN(c2cccc(Cl)c2Cl)CC1)c1ccc2c(c1)Cc1ccccc1-2`, the pKi is 8.85 at D(3) dopamine receptor and 6.66 on D(2) dopamine receptor.
For the molecule `O=C(NCCCCN1CCN(c2cccc(Cl)c2Cl)CC1)c1cccc2c1-c1ccccc1C2=O`, the pKi at D(3) dopamine receptor is 8.85; on D(2) dopamine receptor, 7.05.
With `COc1cc(Br)cc(-c2ccc(CN3CCc4ccccc4C3)[nH]2)c1OC`, the values for the pKi at D(3) dopamine receptor and at D(2) dopamine receptor were 8.42 and 7.52, respectively.
As for `COc1cc(Br)cc(C(=O)NCCN2CCc3ccccc3C2)c1OC`, the pKi on D(4) dopamine receptor is 7.32; at Sigma 2 receptor it was 6.14.
Molecule `COc1c(C(=O)NC[C@H]2CCCN2C2CCCCC2)cc(Br)c2ccccc12` showed a pKi at Sigma 2 receptor of 7.60.
For `COc1cc(Br)cc(C(=O)NCCCCN2CCN(c3cccc(Cl)c3Cl)CC2)c1OC`, the results for the pKi on D(4) dopamine receptor and on Sigma 2 receptor were 6.10 and 7.12, respectively.
On Sigma 2 receptor, `COc1c(C(=O)NCCN2CCc3ccccc3C2)cc(Br)c2ccccc12` gave a pKi of 7.32.
Regarding `COc1cc2c(cc1OC)CN(CCCCNC(=O)c1cc(Br)c3ccccc3c1OC)CC2`, the pKi at Sigma 2 receptor was 7.75.
`COc1cc2c(cc1OC)CN(CCNC(=O)c1cc(Br)c3ccccc3c1OC)CC2` gave a pKi on Sigma 2 receptor of 7.67.
As to `COc1cc2c(cc1OC)CN(Cc1ccc(-c3cc(Br)cc(OC)c3OC)[nH]1)CC2`, the pKi was 8.41 at D(3) dopamine receptor and 7.48 at D(2) dopamine receptor.
Turning to `COc1c(C(=O)NC2CCN(C3C4CC5CC(C4)CC3C5)C2)cc(Br)c2ccccc12` (stereo unspecified), the pKi at Sigma 2 receptor is 7.15; on D(3) dopamine receptor it was 9.40.
`COc1cc2c(cc1OC)CN(CCNC(=O)c1cc(Br)cc(OC)c1OC)CC2`: the pKi is 6.58 at D(4) dopamine receptor and 7.79 at Sigma 2 receptor.
Turning to `COc1cc2c(cc1OC)CN(CCNC(=O)c1cc(C)ccc1OC)CC2`, at Sigma 2 receptor, the pKi is 7.88.
For the molecule `COc1cc2c(cc1OC)CN(CCNC(=O)c1cc(Br)ccc1OC)CC2`, on Sigma 2 receptor, the pKi was 7.91.
Same read-out and setting: for `COc1ccc(Br)cc1C(=O)NCCN1CCc2ccccc2C1` the value was 7.05.
